The results in this text go back to article PMC7564829, “Potent Broad-Spectrum Antibacterial Activity of Amphiphilic Peptides against Multidrug-Resistant Bacteria” (Microorganisms, 2020).

Holding throughout (type): cell-based
The test system of assay [1] is E. coli 1F28. The settings on record: E. coli 1F28 and 1A34; 10 mM in MHB.
In assay [2] the test system is E. coli 1F28. The experiment in a line: Cytoplasmic membrane potential (DiSC3(5)). Conditions: 0 to 128 μg/mL, 60 min. Here is the method:
A fluorescent probe DiSC3(5) (Aladdin, Shanghai, China) was utilized to evaluate the effect of WRK-12 on bacterial membrane potential. E. coli 1F28 cells were probed with 3,3′-dipropylthiadicarbocyanine iodide (DiSC3(5), 0.5 μM) for 30 min, and then treated with WRK-12 (0 to 128 μg/mL) or colistin (128 μg/mL) for 60 min. Subsequently, the dissipated membrane potential was determined by monitoring the fluorescence intensity (λexcitation = 622 nm, λemission = 670 nm) using a Microplate reader (Tecan, Männedorf, Switzerland).

Assay [3] relates to E. coli ATCC 25922. As to the kind of experiment: microbe, parasite or virus in culture. Here is the method:
(§1) Experiments were performed with two biological replicates.

Assay [4] has as its system S. enteritidis ATCC 13076. The experiment in a line: microbe, parasite or virus in culture. On the procedure:
as §1

For assay [5], the system named is S. aureus ATCC 29213. As to the kind of experiment: microbe, parasite or virus in culture. On the procedure:
as §1

Assay [6] relates to S. aureus 215 (cfr + LZD^R). As to the kind of experiment: microbe, parasite or virus in culture. The settings on record: S. aureus 215 (cfr + LZD^R). Here is the method:
as §1

The subject of assay [7] is MDR E. coli B2 (mcr-1 + blaNDM-5). As to the kind of experiment: microbe, parasite or virus in culture. Here is the method:
as §1

For assay [8], the system named is E. coli 1F28. As to the kind of experiment: LPS, lipids or NAC inhibition assay (MIC). From the text: Lipopolysaccharides (LPS), lipids or NAC inhibition assay.

As for Ac-WRLRWKTRWRLK-NH2 [WRK-12], in assay [1], the “activity in the presence of monovalent cations (Na^+ and K^+)” value is on record as “not any loss of activity”. Further, the “membrane potential (ΔΨ), DiSC3(5) fluorescence” value in assay [2] is reported as “significantly dissipated membrane potential”. For the same substance, the MBC in assay [3] (ATCC 25922, 4 h) is 8 µg/mL; in assay [4] (ATCC 13076, 4 h) it was 4 µg/mL; in assay [5] (ATCC 29213, 4 h) it was 4 µg/mL; in assay [6] (lowest concentration killing 99.9%, plated on MHA) it was 2 µg/mL; in assay [7] (MDR B2 (mcr-1 + blaNDM-5, 4 h)) it was 4 µg/mL. The MIC turned out to be 4 µg/mL in assay [3] (ATCC 25922, 18 h); 4 µg/mL in assay [4] (ATCC 13076, 18 h); 4 µg/mL in assay [5] (ATCC 29213, 18 h); 2 µg/mL in assay [6] (broth micro-dilution CLSI 2018, MHB, 18 h, 37 °C). Further, the “MIC decrease relative to WL-9” value in assay [7] (MDR E. coli B2, insertion of three positive amino acids in WL-9) was 4 fold. In addition, in assay [8] (16 μg/mL CL, E. coli 1F28), the “MIC increase with exogenous CL” value is recorded as 16 fold. Moreover, the “MIC increase with exogenous PG” value in assay [8] (16 μg/mL PG, E. coli 1F28) was 16 fold. Further, the “effect of exogenous LPS on antibacterial activity” value in assay [8] (LPS from E. coli O111:B4, 0 to 128 μg/mL, MIC against E. coli 1F28, chequerboard broth microdilution) is reported as “weakened WRK-12 activity in a dose-dependent manner”. For the same substance, the “MIC increase with ROS scavenger NAC” value in assay [8] (NAC 2.5 mM, E. coli 1F28, three independent experiments) is 6 fold. The “effect of exogenous PE on antibacterial activity” value in assay [8] (PE 0 to 16 μg/mL, E. coli 1F28) was “mildly impaired WRK-12 activity”.
